The numbers were not newly measured in patent US7307164B2, “β-amino heterocyclic dipeptidyl peptidase inhibitors for the treatment or prevention of diabetes” (Merck & Co., Inc., priority 2002, dated 2007), which cites them from elsewhere.

One series deals with cardiac allograft. The conditions noted are these: rats; survival from day 7 to day 14.
In the next series the test system is hematopoiesis. The conditions noted are these: mouse, cyclophosphamide-induced neutropenia.
A further series addresses T1, DP-IV (Homo sapiens, UniProt P27487).
T1 construct: GRF is rapidly degraded in plasma to GRF[3-44]

T1 sequence (P27487 whole entry): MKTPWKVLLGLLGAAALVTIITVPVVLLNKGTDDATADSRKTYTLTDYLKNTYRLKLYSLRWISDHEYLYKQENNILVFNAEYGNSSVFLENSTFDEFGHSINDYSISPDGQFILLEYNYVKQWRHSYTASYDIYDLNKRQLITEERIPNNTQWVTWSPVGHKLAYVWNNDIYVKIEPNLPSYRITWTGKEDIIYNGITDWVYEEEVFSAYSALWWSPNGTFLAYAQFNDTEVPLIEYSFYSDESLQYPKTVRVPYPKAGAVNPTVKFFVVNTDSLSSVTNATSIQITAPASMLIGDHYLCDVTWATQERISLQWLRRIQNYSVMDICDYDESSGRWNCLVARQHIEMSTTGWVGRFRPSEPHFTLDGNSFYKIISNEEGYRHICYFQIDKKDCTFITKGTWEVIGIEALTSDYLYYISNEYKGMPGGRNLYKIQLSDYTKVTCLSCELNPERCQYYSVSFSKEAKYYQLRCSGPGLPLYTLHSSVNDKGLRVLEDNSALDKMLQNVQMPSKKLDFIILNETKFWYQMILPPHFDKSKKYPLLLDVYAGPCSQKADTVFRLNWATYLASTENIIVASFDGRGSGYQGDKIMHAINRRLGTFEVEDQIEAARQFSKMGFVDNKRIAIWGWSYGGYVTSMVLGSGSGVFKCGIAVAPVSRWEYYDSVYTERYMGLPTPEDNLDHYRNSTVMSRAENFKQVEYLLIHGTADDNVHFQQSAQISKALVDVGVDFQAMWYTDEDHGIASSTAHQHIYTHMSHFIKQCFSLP

Consider `CC(C)N1CCC(c2ccccc2)(c2ccccc2)CC1` [Prodipine, Pro-Pro-diphenyl-phosphonate], for which the cardiac allograft survival result in the series with cardiac allograft is reported as “double cardiac allograft survival”.

For the compound `CC(C)[C@H](N)C(=O)N1CCC[C@H]1B(O)O` [Val-Boro-Pro], the hematopoiesis entry in the series with hematopoiesis was “stimulated hematopoiesis”.

In the case of `CC[C@H](C)[C@H](N)C(=O)N1CCC[C@H]1C(=O)N[C@H](C(=O)O)[C@@H](C)CC` [diprotin A], on DP-IV, the “degradation of GRF in plasma to GRF[3-44]” value is “prevented”.
